According to US4532255A, “Amidine compounds and anticomplement agent comprising same” (Torii & Co., Ltd., priority 1980, dated 1985):
Like-named read-outs stand apart in the source and are kept apart here.

What was measured:
Trypsin = molecular target: T1, Trypsin (Bos taurus, UniProt P00760); test: Anti-trypsin activity (hydrolysis of TAME); assay type: biochemical; conditions: for IC50: molar concentration inhibiting 50% of TAME hydrolysis, read-out: Trypsin ID50
T1 sequence (P00760 24-246): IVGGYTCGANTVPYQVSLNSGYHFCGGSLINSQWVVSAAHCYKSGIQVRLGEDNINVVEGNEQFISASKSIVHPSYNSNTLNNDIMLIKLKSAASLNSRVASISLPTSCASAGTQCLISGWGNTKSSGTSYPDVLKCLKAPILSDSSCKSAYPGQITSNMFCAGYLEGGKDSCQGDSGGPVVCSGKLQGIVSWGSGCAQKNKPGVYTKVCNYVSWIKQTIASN
Protocol: (§1) The anti-trypsin, anti-plasmin, anti-kallikrein and anti-thrombin activities were determined according to the method of Muramatsu et al. [M. Muramatsu, T. Onishi, S. Makino, Y. Hayashi and S. Fujii, J. of Biochem., 58, 214 (1965)]. […] The compound No. corresponds to the compound number shown in Examples.

Plasmin = Plasmin (Homo sapiens, UniProt P00747); test: Anti-plasmin activity (hydrolysis of TAME); assay type: biochemical; conditions: for IC50: molar concentration inhibiting 50% of TAME hydrolysis, read-out: Plasmin ID50; for inhibition at 10 µM: at 1×10^-5 M, read-out: Plasmin percentage inhibition
Plasmin, sequence (P00747 581-810 limits assumed, species assumed): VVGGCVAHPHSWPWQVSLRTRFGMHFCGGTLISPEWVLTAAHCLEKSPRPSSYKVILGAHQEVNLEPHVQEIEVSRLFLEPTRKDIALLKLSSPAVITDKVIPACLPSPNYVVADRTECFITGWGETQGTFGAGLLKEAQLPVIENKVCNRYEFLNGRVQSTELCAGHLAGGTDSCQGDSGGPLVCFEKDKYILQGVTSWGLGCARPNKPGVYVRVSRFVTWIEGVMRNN
Plasmin, sequence (P00747 97-580 partner limits assumed, species assumed): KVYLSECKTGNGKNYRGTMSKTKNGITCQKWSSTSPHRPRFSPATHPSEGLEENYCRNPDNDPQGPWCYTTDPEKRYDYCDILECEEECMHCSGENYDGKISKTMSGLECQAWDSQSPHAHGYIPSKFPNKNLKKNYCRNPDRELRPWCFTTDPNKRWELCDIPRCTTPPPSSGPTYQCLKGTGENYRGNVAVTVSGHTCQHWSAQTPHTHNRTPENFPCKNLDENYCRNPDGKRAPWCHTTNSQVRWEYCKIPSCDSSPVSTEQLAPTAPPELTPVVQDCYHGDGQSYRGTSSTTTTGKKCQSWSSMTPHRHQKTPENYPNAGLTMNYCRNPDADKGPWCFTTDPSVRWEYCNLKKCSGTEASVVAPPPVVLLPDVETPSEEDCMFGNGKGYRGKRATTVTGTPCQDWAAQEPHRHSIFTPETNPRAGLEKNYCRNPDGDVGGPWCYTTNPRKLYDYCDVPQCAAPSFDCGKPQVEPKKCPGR
Protocol: as §1

Thrombin = Thrombin (Homo sapiens, UniProt P00734); test: biochemical; conditions: for IC50: molar concentration inhibiting 50% of TAME hydrolysis, read-out: Thrombin ID50; for inhibition at 10 µM: at 1×10^-5 M, read-out: Thrombin percentage inhibition
Protocol: (§2) The anti-trypsin, anti-plasmin, anti-kallikrein and anti-thrombin activities were determined according to the method of Muramatsu et al. [M. Muramatsu, T. Onishi, S. Makino, Y. Hayashi and S. Fujii, J. of Biochem., 58, 214 (1965)]. The data summarized in Table 1 are expressed in terms of molar concentration (ID50) of the test compound which inhibits 50% of the activity of each enzyme to hydrolyze TAME (tosylalginine methyl ester). The compound No. corresponds to the compound number shown in Examples.

C1r = molecular target: T2, C1r (Homo sapiens, UniProt P00736); test: Anti-C1 esterase (C1r) activity (hydrolysis of AAME); assay type: biochemical; conditions: for IC50: AAME hydrolysis, read-out: Anti-C1 activity, C1r ID50; for inhibition at 10 µM: at 1×10^-5 M, read-out: Anti-C1 activity, C1r percent inhibition
T2 sequence (P00736 464-705 limits assumed): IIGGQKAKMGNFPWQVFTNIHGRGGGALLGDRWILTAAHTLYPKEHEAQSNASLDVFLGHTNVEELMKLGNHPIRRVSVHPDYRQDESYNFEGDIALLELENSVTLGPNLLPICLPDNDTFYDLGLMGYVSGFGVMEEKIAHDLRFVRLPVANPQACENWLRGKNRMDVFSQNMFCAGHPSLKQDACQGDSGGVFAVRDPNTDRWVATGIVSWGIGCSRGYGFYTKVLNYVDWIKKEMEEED
T2 sequence (P00736 18-463 partner limits assumed): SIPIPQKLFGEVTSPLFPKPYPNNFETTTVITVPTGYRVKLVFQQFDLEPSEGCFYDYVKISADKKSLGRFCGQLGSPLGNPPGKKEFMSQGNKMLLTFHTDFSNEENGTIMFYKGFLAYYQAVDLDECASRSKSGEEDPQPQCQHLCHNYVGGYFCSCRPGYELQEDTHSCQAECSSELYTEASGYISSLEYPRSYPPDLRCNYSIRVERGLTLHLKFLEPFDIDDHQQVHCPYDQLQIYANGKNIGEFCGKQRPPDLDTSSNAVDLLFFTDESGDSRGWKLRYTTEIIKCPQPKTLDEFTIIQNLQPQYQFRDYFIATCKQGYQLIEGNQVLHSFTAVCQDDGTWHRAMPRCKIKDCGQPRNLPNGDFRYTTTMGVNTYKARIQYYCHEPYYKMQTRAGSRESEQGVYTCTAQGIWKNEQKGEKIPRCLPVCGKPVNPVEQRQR
Protocol: The anti-Cl esterase ([…]) activity was determined according to the method of Okamura et al. [K. Okamura, M. Muramatsu and S. Fujii, Biochem. Biophys.

C1s = molecular target: T3, C1s (Homo sapiens, UniProt P09871); test: biochemical
T3 sequence (P09871 438-688 limits assumed): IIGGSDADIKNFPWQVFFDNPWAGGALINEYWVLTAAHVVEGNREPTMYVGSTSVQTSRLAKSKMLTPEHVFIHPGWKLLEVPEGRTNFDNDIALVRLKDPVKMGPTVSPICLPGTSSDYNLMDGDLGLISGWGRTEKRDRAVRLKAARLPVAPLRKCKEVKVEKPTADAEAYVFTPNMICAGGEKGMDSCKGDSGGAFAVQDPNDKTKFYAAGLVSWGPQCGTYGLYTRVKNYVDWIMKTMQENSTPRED
T3 sequence (P09871 16-437 partner limits assumed): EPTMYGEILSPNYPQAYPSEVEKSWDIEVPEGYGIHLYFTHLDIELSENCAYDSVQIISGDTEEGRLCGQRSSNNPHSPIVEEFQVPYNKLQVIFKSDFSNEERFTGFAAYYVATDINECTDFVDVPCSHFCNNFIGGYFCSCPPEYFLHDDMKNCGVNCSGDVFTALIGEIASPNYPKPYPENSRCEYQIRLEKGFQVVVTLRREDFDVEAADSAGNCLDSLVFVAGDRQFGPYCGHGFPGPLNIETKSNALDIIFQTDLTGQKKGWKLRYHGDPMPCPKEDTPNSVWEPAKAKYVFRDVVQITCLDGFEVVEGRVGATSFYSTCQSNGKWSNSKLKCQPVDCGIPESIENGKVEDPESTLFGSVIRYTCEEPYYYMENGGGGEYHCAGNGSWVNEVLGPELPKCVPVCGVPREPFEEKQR
Protocol: The anti-Cl esterase (Clr, Cls) activity was determined according to the method of Okamura et al. [K. Okamura, M. Muramatsu and S. Fujii, Biochem. Biophys. […] The figures in Table 2 have the following meanings:
Cls: Molar concentration of the test compound which inhibits 50% of the ability of Cls to hydrolyse ATEE (acetyltyrosin ethyl ester).

[1] = tested on: complement mediated hemolysis; test: Inhibition of complement mediated hemolysis; assay type: cell-based
Protocol: The principle of this method is based on the fact that hemolysis is caused by the activation of complement, when the latter is added to a complex (immune complex) of erythrocytes and the antibody thereof. The degree of hemolysis varies in proportion to the amount of complement added. Therefore, when a known amount of complement admixed with a C1 esterase inhibitor is used, the hemolysis must be suppressed in proportion to the inhibitory activity.

Kallikrein [2] = test: Anti-kallikrein activity (hydrolysis of TAME); assay type: biochemical; conditions: at 1×10^-5 M
Kallikrein [3] = test: Anti-kallikrein activity (hydrolysis of TAME); assay type: biochemical; conditions: molar concentration inhibiting 50% of TAME hydrolysis; read-out: Kallikrein ID50
Protocol: as §2

[4] = ATEE hydrolysis, read-out: Anti-C1 activity, C1s ID50

SMILES	IC50 (Trypsin)	IC50 (Plasmin)	IC50 (Thrombin)	IC50 (C1r)	IC50 (C1s; [4])	Inhibition of complement mediated hemolysis (%) ([1]; 1 × 10^-4)	Inhibition of complement mediated hemolysis (%) ([1]; 1 × 10^-5)	Inhibition of complement mediated hemolysis (%) ([1]; 1 × 10^-6)	Inhibition of complement mediated hemolysis (%) ([1]; 1 × 10^-7)	Kallikrein percentage inhibition (Kallikrein [2])	inhibition at 10 µM (Plasmin)	inhibition at 10 µM (Thrombin)	IC50 (C1s)	IC50 (Kallikrein [3])	inhibition at 10 µM (Trypsin; at 1×10^-5 M, read-out: Trypsin percentage inhibition)	inhibition at 10 µM (C1r)
Cc1cccc(C(=O)Oc2ccc3cc(C(=N)N)ccc3c2)c1 [Compound 3, 6-amidino-2-naphthyl 3-methylbenzoate]	2 µM	4 µM	4 µM	1 µM	2 µM	97%	60%	8%	11%	38%	–	–	–	–	–	–
COc1ccc(C(=O)Oc2ccc3cc(C(=N)N)ccc3c2)cc1 [Compound 7]	–	3 µM	3 µM	0.1 µM	0.2 µM	51%	78%	21%	0%	46%	–	–	–	–	–	–
CCCCOc1ccc(C(=O)Oc2ccc3cc(C(=N)N)ccc3c2)cc1 [Compound 8]	0.04 µM	–	–	10 µM	0.4 µM	46%	18%	23%	–	43%	17%	29%	–	–	–	–
N=C(N)c1ccc2cc(OC(=O)c3ccc(OCc4ccccc4)cc3)ccc2c1 [Compound 9]	0.04 µM	–	–	–	–	–	–	–	–	19%	48%	20%	–	–	–	–
N=C(N)c1ccc2cc(OC(=O)c3ccc(F)cc3)ccc2c1 [Compound 15]	3 µM	1 µM	2 µM	–	–	98%	89%	23%	2%	38%	–	–	0.3 µM	–	–	–
N=C(N)c1ccc2cc(OC(=O)c3ccc(Br)cc3)ccc2c1 [Compound 17]	4 µM	2 µM	–	0.7 µM	0.5 µM	98%	72%	9%	0%	23%	–	–	–	–	–	–
N=C(N)c1ccc2cc(OC(=O)c3ccc(S(N)(=O)=O)cc3)ccc2c1 [Compound 29]	10 µM	2 µM	2 µM	–	–	–	–	–	–	42%	–	–	–	–	–	–
N=C(N)c1ccc2cc(OC(=O)c3ccc(C=O)cc3)ccc2c1 [Compound 31]	4 µM	0.4 µM	0.3 µM	2 µM	3 µM	98%	99%	92%	76%	–	–	–	–	> 10 µM	–	–
COc1ccc(CCC(=O)Oc2ccc3cc(C(=N)N)ccc3c2)cc1OC [Compound 49]	2 µM	4 µM	–	–	–	–	–	–	–	29%	–	17%	–	–	–	–
N=C(N)Nc1ccc(CCC(=O)Oc2ccc3cc(C(=N)N)ccc3c2)cc1 [Compound 52]	–	> 10 µM	> 10 µM	> 10 µM	> 10 µM	48%	15%	6%	14%	–	–	–	–	> 10 µM	33%	–
N=C(N)c1ccc2cc(OC(=O)C=Cc3ccccc3)ccc2c1 [Compound 57, 6-amidino-2-naphthyl cinnamate]	5 µM	3 µM	10 µM	30 µM	3 µM	–	80%	24%	23%	–	–	–	–	50 µM	–	–
N=C(N)c1ccc2cc(OC(=O)C=Cc3ccc(N)cc3)ccc2c1 [Compound 63, 6-amidino-2-naphthyl 4-aminocinnamate]	2 µM	8 µM	> 10 µM	–	0.4 µM	73%	37%	26%	42%	–	–	–	–	4 µM	–	15%
N=C(N)Nc1ccc(C=CC(=O)Oc2ccc3cc(C(=N)N)ccc3c2)cc1 [Compound 64, 6-amidino-2-naphthyl 4-guanidinocinnamate]	2 µM	10 µM	> 10 µM	–	3 µM	–	39%	17%	19%	–	–	–	–	4 µM	–	14%
N=C(N)c1ccc2cc(OC(=O)C=Cc3cccc(C(F)(F)F)c3)ccc2c1 [Compound 66]	6 µM	0.5 µM	–	6 µM	4 µM	60%	6%	1%	1%	–	–	21%	–	> 10 µM	–	–
COc1ccccc1OCC(=O)Oc1ccc2cc(C(=N)N)ccc2c1 [Compound 68]	> 10 µM	> 10 µM	10 µM	> 10 µM	> 10 µM	91%	4%	0%	0%	–	–	–	–	> 10 µM	–	–
